Target: Cannabinoid receptor 1 (Homo sapiens, UniProt P21554)
Experiment: Displacement of [3H]-CP-55940 from human CB1 receptor transfected in CHOK1 cells after 90 mins by liquid scintillation counting analysis
Format: cell-based, CHO-K1

Cannabinoid receptor 1, sequence (P21554 whole entry): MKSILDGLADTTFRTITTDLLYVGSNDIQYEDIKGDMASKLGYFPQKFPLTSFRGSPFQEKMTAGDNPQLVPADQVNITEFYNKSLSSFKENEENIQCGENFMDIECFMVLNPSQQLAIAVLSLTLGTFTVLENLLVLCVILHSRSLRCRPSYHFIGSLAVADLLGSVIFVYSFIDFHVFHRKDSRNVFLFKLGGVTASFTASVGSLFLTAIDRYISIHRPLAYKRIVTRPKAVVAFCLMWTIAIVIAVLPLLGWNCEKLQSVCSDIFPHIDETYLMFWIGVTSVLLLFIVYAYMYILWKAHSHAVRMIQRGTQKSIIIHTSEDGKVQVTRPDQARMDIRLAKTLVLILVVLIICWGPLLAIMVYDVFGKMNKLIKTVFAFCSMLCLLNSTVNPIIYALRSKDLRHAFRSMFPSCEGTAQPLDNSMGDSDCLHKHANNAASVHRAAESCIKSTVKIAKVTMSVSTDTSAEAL

| SMILES | Ki |
| --- | --- |
| CCCCCn1cc(C(=O)NC23CC4CC(CC(C4)C2)C3)c(=O)c2cccc(OC)c21 | > 10 µM |
| CCCCn1cc(C(=O)NCC2CC2)c(=O)c2cccc(OC)c21 | > 10 µM |

— ChEMBL document CHEMBL3407340, “Synthesis, radiolabeling and evaluation of novel 4-oxo-quinoline derivatives as PET tracers for imaging cannabinoid type 2 receptor” (Eur J Med Chem, 2015)
